In US20100048630A1, “METHODS FOR TREATING CNS DISORDERS” (priority 2008, published 2010):

What was measured:
[1] = test system: Male NMRI mice; test: Spontaneous locomotor activity (four-channel activity monitor); type: in vivo; conditions: doses of 5 and 10 mg/kg
Experimental: (§1) Male NMRI mice weighing 24-26 g were used. The animals were kept in polycarbonate cages in a thermostatically controlled room at 24±2° C. and at a relative humidity (RH) of 50±10%. The room was artificially illuminated from 6 am to 6 pm and the mice were given commercial pellet rat-mouse feed, autoclaved at 105° C. and sterile filtered tap water, ad libitum.
(§2) An aqueous solution of radiprodil, in the form of a complex with heptakis(2,6-di-O-methyl)-β-cyclodextrin (DIMEB), was administered orally at doses of 2.5, 5 and 10 mg/kg (calculated for non-complexed radiprodil). […]
Spontaneous locomotor activity was measured in a four-channel activity monitor manufactured by Farmakotechnika (Hungary). […] The photocell beam, when broken, signaled a count, which was then recorded by a computer.
Each group consisted of 10 animals. […] The horizontal and vertical movements were determined as the number of beam interruptions collected in 15 minute intervals throughout the 1 hour period.
In the spontaneous locomotor activity test, the mean (±s.e.m) value of one hour horizontal activity data (in counts) of each group was calculated.
(§3) The significance of the drug effect was determined by ANOVA followed by post-hoc Duncan-test. The percentage change in the horizontal activity, immobility or “FST-activity” variables were calculated for each dose according to the equation; […]

[2] = test system: Male NMRI mice; test: Forced swimming test (FST); type: in vivo; conditions: doses of 5 and 10 mg/kg; may be a false positive from nonspecific stimulatory effect
Experimental: as §1, §2
The forced swimming test (FST) was measured in glass cylinders (height: […], diameter 14 cm) containing 12 cm of water, maintained at 23-25° C. […] The duration of immobility was recorded using a stopwatch. […]
In the forced swimming test, the mean±standard error on the mean (s.e.m) immobility time in seconds was measured. […] The mean (±s.e.m) “FST-activity” value was also calculated for each group and submitted to the same data analysis process as the immobility data.
as §3

For `O=C(Nc1ccc2[nH]c(=O)oc2c1)C(=O)N1CCC(Cc2ccc(F)cc2)CC1` [radiprodil, 2-[4-(4-fluoro-benzyl)-piperidine-1-yl]-2-oxo-N-(2-oxo-2,3-dihydro-benzoxazol-6-yl)acetamide], the “effect on spontaneous motor activity of the mice” value [1] was “stimulated” and the “effect in the forced swimming test” value [2] was “significant effects”.
